Entries after “also recorded” stand apart in the source; their conditions may differ.
Key:
[1] = system: Kunming mice with CFA-induced inflammation; experiment: Effective concentration and plateau experiment of vanadium compounds, tail vein injection, mouse pain model; format: in vivo; conditions: for Duration / Maximum analgesic intensity (mean): Plateau experiment, dose (vanadium) A5/G3 0.25, A1/G1/H1 0.49, A4/G2/H2 0.97, H3 1.9 mg/kg, 6 samples; for Minimum effective dose: mice; for Blood concentration in mice equivalent to the plateau dose: plateau dose 0.49 mg/kg
[2] = system: Kunming mice with CFA-induced inflammation; experiment: Von Frey test (50% paw withdrawal threshold) in CFA-induced inflammatory pain mouse model; format: in vivo
Procedure: 10 μL of complete Freund's adjuvant (CFA) was injected into the left hind foot of mice (♂ Kunming mice, 22 g to 40 g) to induce inflammation. 24 hours after the injection, a Von Frey test was performed to determine a pain threshold. That is, under the guidance of Dixon's Up-Down method, Von Frey fibers were used to induce the mechanical paw withdrawal of the mice, and data were collected and calculated to obtain their 50% paw withdrawal thresholds (paw withdrawal threshold or PWT for short, i.e. pain threshold). Mice were then divided into different groups, including a normal saline group, a positive control group, and a drug group, which were intraperitoneally injected with normal saline, an aspirin (acetylsalicylic acid, or ASA) solution and a solution of compound for testing respectively. A Von Frey test was then performed to monitor changes in pain threshold.
Mice were divided into three groups: a blank control group, an aspirin (ASA) group, and a drug group. In blank control group, the mice were given normal saline, deionized water or deionized water containing ≤5% DMSO at the same volume as that in the drug group. In ASA group, the mice were given the known analgesic drug ASA as the positive control for tested compounds. In drug group, the mice were given compounds for testing accordingly. Due attention was paid to observe whether the pain threshold rose, the period during which the rise was maintained and the magnitude of the rise, after the injection of a tested compound solution.

[3] = system: Kunming mice with CFA-induced inflammation; experiment: as above; format: in vivo; conditions: Example 10; G1 injected through the tail vein 0.49 mg/kg (atomic mass of vanadium); ASA group as control
[4] = system: mice that suffered from pain due to induced inflammation; conditions: intrathecal injection, inflammatory pain; cited from earlier work
[5] = Example 3, intraperitoneal injection, A1 0.97 mg/kg (atomic mass of vanadium), S about 250 mg/kg
[6] = intraperitoneal injection, doses as in Examples 3-9
[7] = Example 5, intraperitoneal injection, C 1.9 mg/kg (atomic mass of vanadium), S about 250 mg/kg
[8] = Example 6, intraperitoneal injection, D 1.9 mg/kg, S about 250 mg/kg
[9] = Example 7, intraperitoneal injection, B 0.97 mg/kg (atomic mass of vanadium), S about 250 mg/kg
[10] = Example 8, intraperitoneal injection, E 0.97 mg/kg (atomic mass of vanadium), ASA about 250 mg/kg
[11] = Example 9, intraperitoneal injection, F 0.97 mg/kg (atomic mass of vanadium), ASA about 250 mg/kg
[12] = Example 11 (BEOV), intraperitoneal injection, I about 0.97 mg/kg (atomic mass of vanadium)
[13] = Example 11 (BMOV), intraperitoneal injection, H1 about 0.97 mg/kg (atomic mass of vanadium)
[14] = Example 12, intraperitoneal injection, J about 0.97 mg/kg (atomic mass of vanadium)
[15] = Example 13, intraperitoneal injection, K about 0.97 mg/kg (atomic mass of vanadium)
[16] = Example 14, intraperitoneal injection, L about 0.97 mg/kg (atomic mass of vanadium)
[17] = Example 15, intraperitoneal injection, M about 0.97 mg/kg (atomic mass of vanadium)
[18] = Example 16, intraperitoneal injection, N about 0.97 mg/kg (atomic mass of vanadium)
[19] = Example 17, intraperitoneal injection, O about 0.97 mg/kg (atomic mass of vanadium)
[20] = Example 18, intraperitoneal injection, P about 0.97 mg/kg (atomic mass of vanadium)
[21] = Example 19, intraperitoneal injection, Q about 0.97 mg/kg (atomic mass of vanadium)
[22] = Example 20, intraperitoneal injection, R about 0.97 mg/kg (atomic mass of vanadium)

[Na+].[Na+].[Na+].[O]=[V]([O-])([O-])[O-] [Solution A1, Sodium orthovanadate]
Duration ([1]; listed as A1): >60 min
Maximum analgesic intensity (mean) ([1]; listed as A1): ~0.55 g
Duration [2, 5]: >60 min
Onset time [2, 5]: 30 to 45 after injection min
Duration ([2]; Example 4, intraperitoneal injection, A1 0.97, A2 0.19, A3 0.097 mg/kg (atomic mass of vanadium)): >60 min
Onset time ([2]; Example 4, intraperitoneal injection, A1 0.97, A2 0.19, A3 0.097 mg/kg (atomic mass of vanadium), listed as A1): 30 to 45 after injection min
Time after injection at which the pain threshold returned to the baseline value [2, 6]: > 90 min
Pain thresholds / analgesic intensity compared with the S (ASA, aspirin) group ([2]; intraperitoneal injection, doses as in Examples 3-9, most of the time after onset): generally higher than those of the mice in the S group

O=S(=O)([O-])[O-].[O]=[V+2] [Solution G1, Vanadyl sulfate]
Duration [3]: >60 min
Onset time [3]: 0 to 15 after injection min
Duration ([1]; listed as G1): >60 min
Maximum analgesic intensity (mean) ([1]; listed as G1): ~0.49 g

Cc1occc(=O)c1[O-].Cc1occc(=O)c1[O-].[O]=[V+2] [Solution H2, bis(maltolato)oxovanadium (IV)]
Duration ([1]; listed as H2): >60 min
Maximum analgesic intensity (mean) ([1]; listed as H2): 0.54 g

[Na+].[Na+].[Na+].[O]=[V]([O-])([O-])[O-] [Solution A, Sodium orthovanadate]
Analgesic effect [4]: found the analgesic effect
Minimum effective dose [1]: about 1.0×10^−3 mg/kg
Blood concentration in mice equivalent to the plateau dose [1]: 140 µM
Analgesic effect ([2]; mouse, in vivo, ip): have an analgesic effect
Effective duration compared with aspirin (ASA) ([2]; mouse, in vivo, ip): significantly longer duration of action than that of ASA; also recorded: longer than that of aspirin

O=S(=O)([O-])[O-].[O]=[V+2] [Solution G3, Vanadyl sulfate]
Duration ([1]; listed as G3): >60 min
Maximum analgesic intensity (mean) ([1]; listed as G3): ~0.46 g

CC(=O)Oc1ccccc1C(=O)O [Solution S, acetylsalicylic acid, reference compound]
Duration [3]: <45 min
Onset time [3]: 0 to 15 after injection min
Duration [2, 5]: <45 min
Onset time [2, 5]: 15 to 30 after injection min
Duration [2, 7]: <45 min
Onset time [2, 7]: 15 to 30 after injection min
Duration ([2]; Example 5, intraperitoneal injection, C 1.9 mg/kg (atomic mass of vanadium), S about 250 mg/kg, listed as ASA): < 45 min
Duration [2, 8]: <45 min
Onset time [2, 8]: 15 to 30 after injection min
Duration ([2]; Example 6, intraperitoneal injection, D 1.9 mg/kg, S about 250 mg/kg, listed as ASA): < 45 min
Duration [2, 9]: <45 min
Onset time [2, 9]: 15 to 30 after injection min
Duration ([2]; Example 7, intraperitoneal injection, B 0.97 mg/kg (atomic mass of vanadium), S about 250 mg/kg, listed as ASA): < 45 min
Duration [2, 10]: <45 min
Onset time [2, 10]: 15 to 30 after injection min
Duration ([2]; Example 8, intraperitoneal injection, E 0.97 mg/kg (atomic mass of vanadium), ASA about 250 mg/kg, listed as ASA): < 45 min
Duration [2, 11]: <45 min
Onset time [2, 11]: 15 to 30 after injection min
Duration ([2]; Example 9, intraperitoneal injection, F 0.97 mg/kg (atomic mass of vanadium), ASA about 250 mg/kg, listed as ASA): < 45 min
Duration [2, 12]: <45 min
Onset time [2, 12]: 15 to 30 after injection min
Duration [2, 13]: <45 min
Onset time [2, 13]: 0 to 15 after injection min
Duration [2, 14]: <45 min
Onset time [2, 14]: 15 to 30 after injection min
Duration [2, 15]: <45 min
Onset time [2, 15]: 0 to 15 after injection min
Duration [2, 16]: <45 min
Onset time [2, 16]: 15 to 30 after injection min
Duration [2, 17]: <45 min
Onset time [2, 17]: 15 to 30 after injection min
Duration [2, 18]: <45 min
Onset time [2, 18]: 15 to 30 after injection min
Duration [2, 19]: <45 min
Onset time [2, 19]: 15 to 30 after injection min
Duration [2, 20]: <45 min
Onset time [2, 20]: 15 to 30 after injection min
Duration [2, 21]: <45 min
Onset time [2, 21]: 15 to 30 after injection min
Duration [2, 22]: <45 min
Onset time [2, 22]: 15 to 30 after injection min
Time after injection at which the pain threshold returned to the baseline value [2, 6]: about 60 minutes

O=S(=O)([O-])[O-].[O]=[V+2] [Solution G, Vanadyl sulfate]
Minimum effective dose [1]: about 1.0×10^−3 mg/kg
Blood concentration in mice equivalent to the plateau dose [1]: 140 µM

Cc1occc(=O)c1[O-].Cc1occc(=O)c1[O-].[O]=[V+2] [Solution H1, bis(maltolato)oxovanadium (IV)]
Duration ([1]; listed as H1): ≤60 min
Maximum analgesic intensity (mean) ([1]; listed as H1): 0.33 g
Duration [2, 13]: >60 min
Onset time [2, 13]: 0 to 15 after injection min
